Experimental data from patent US20040110777A1, “Quinazolinones and pyridinylpyrimidinones for controlling invertebrate pests” (priority 2003, published 2004).

melting point: 132 to 135 °C
SMILES: Cc1nc(C(F)(F)F)ccc1-c1nc2c(C)cccc2c(=O)n1C(C)C [Compound 5, 8-methyl-3-(1-methylethyl)-2-[2-methyl-6-(trifluoromethyl)-3-pyridinyl]-4(3H)-quinazolinone]
